± gives the standard deviation of the averaged measurements.
Compound: T1, CC[C@@]1(O)C(=O)OCc2c1cc1n(c2=O)Cc2cc3ccccc3nc2-1 [CAMPTOTHECIN]
Assay: surviving fraction relative to DMSO-only wells; higher = less growth inhibition
Details: 1000 nM; exposure time: 5 days
Summary of the method: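 Surviving fraction is CellTiter-Glo luminescence divided by the median of wells given DMSO only. For this, log-phase tumour cell lines went into 384-well plates at 250–500 cells per well and, 24 hours later, into five days of continuous inhibitor exposure at 0.5, 1, 5, 10, 50, 100, 500 and 1000 nM. Lines were screened three times and retained only if replicate Pearson r >0.7 and median Z' >0.3.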

| Test System | surviving fraction |
| --- | --- |
| MDAMB157 BREAST | 0.118 ± 0.014 |
| MFM223 BREAST | 0.303 ± 0.1 |
| MG63 BONE | 0.023 ± 0.001 |
| NOS1 BONE | 0.337 ± 0.026 |
| RDES SOFT TISSUE | 0.0357 ± 0.0011 |
| SCC47 HEADNECK | 0.118 ± 0.0095 |
| SG27 HEADNECK | 0.203 ± 0.025 |
| SG28 HEADNECK | 0.102 ± 0.0035 |
| SG31 HEADNECK | 0.133 ± 0.018 |
| SG32 HEADNECK | 0.026 ± 0.002 |
| SIHA CERVIX | 0.0593 ± 0.0023 |
| SJSA1 BONE | 1.18 ± 0.083 |
| SNU475 LIVER | 0.104 ± 0.0085 |
| SUM44 BREAST | 0.231 ± 0.048 |
| SUM159 BREAST | 0.0283 ± 0.00058 |
| U2OS BONE | 0.0677 ± 0.0097 |
| VCAP PROSTATE | 0.158 ± 0.069 |
| VP229 BREAST | 0.0333 ± 0.0031 |
| YAMATO SYNOVIAL | 0.284 ± 0.028 |
| ZR751 BREAST | 0.0797 ± 0.0025 |

Compound: CC(=O)NCC(=O)N1[C@@H]2CC[C@H]1c1ccc(Nc3ncc(C(F)(F)F)c(NC4CCC4)n3)cc12
Assay: area under dose-response curve of surviving fraction (unscaled, Aref=0) (surviving fraction x log10(nM)); higher = more resistant
Details: exposure time: 5 days; dose range 0.5-1000 nM
Summary of the method: (§1)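 Three screens per tumour cell line were run in 384-well plates at eight inhibitor concentrations from 0.5 to 1000 nM over five days. Surviving fractions, from CellTiter-Glo luminescence normalised to DMSO-only wells, were fitted with 3-parameter logistic curves in the drc R package. The reported area under the curve is the unscaled activity area. It spans log10 dose, and Aref is 0.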

| Test System | area under dose-response curve |
| --- | --- |
| 143B BONE | 2.93 |
| ASKA SYNOVIAL | 2.15 |
| BT20 BREAST | 2.05 |
| BT549 BREAST | 2.58 |
| CADOES1 SOFT TISSUE | 2.12 |
| CHLA90 AUTONOMIC GANGLIA | 2.51 |
| CME SYNOVIAL | 2.49 |
| HCC78 LUNG | 2.33 |
| HCC202 BREAST | 4.5 |
| HMLE3 BREAST | 2.59 |
| HT1080 SOFT TISSUE | 2.39 |
| LM7 BONE | 2.54 |
| MDAMB157 BREAST | 2.36 |
| MFM223 BREAST | 2.67 |
| MG63 BONE | 2.52 |
| RDES SOFT TISSUE | 2.44 |

| Test System | area under dose-response curve |
| --- | --- |
| SCC47 HEADNECK | 2.87 |
| SG27 HEADNECK | 3.14 |
| SG28 HEADNECK | 2.96 |
| SG31 HEADNECK | 2.85 |
| SG32 HEADNECK | 2.57 |
| SIHA CERVIX | 2.88 |
| SJSA1 BONE | 3.02 |
| SNU475 LIVER | 2.85 |
| SUM44 BREAST | 3.75 |
| SUM159 BREAST | 2.79 |
| U2OS BONE | 2.43 |
| VCAP PROSTATE | 2.52 |
| VP229 BREAST | 2.78 |
| YAMATO SYNOVIAL | 2.87 |
| ZR751 BREAST | 2.96 |

Compound: CC(=O)O[C@H]1C(=O)[C@@]2(C)[C@H]([C@H](OC(=O)c3ccccc3)[C@]3(O)C[C@H](OC(=O)[C@H](O)[C@@H](NC(=O)c4ccccc4)c4ccccc4)C(C)=C1C3(C)C)[C@]1(OC(C)=O)CO[C@@H]1C[C@@H]2O [PACLITAXEL]
Assay: as above
Details: exposure time: 5 days; dose range 0.5-1000 nM
Summary of the method: as §1

| Test System | area under dose-response curve |
| --- | --- |
| 143B BONE | 1.1 |
| ASKA SYNOVIAL | 0.983 |
| BT20 BREAST | 0.614 |
| BT549 BREAST | 0.396 |
| CADOES1 SOFT TISSUE | 1.87 |
| CHLA90 AUTONOMIC GANGLIA | 1.13 |
| CME SYNOVIAL | 1.47 |
| HCC78 LUNG | 0.585 |
| HCC202 BREAST | 1.37 |
| HMLE3 BREAST | 0.754 |
| HT1080 SOFT TISSUE | 0.5 |
| LM7 BONE | 0.746 |
| MDAMB157 BREAST | 0.654 |
| MFM223 BREAST | 0.825 |
| MG63 BONE | 0.809 |
| NOS1 BONE | 1.13 |

| Test System | area under dose-response curve |
| --- | --- |
| RDES SOFT TISSUE | 1.03 |
| SCC47 HEADNECK | 1.02 |
| SG27 HEADNECK | 3.02 |
| SG28 HEADNECK | 2.04 |
| SG31 HEADNECK | 1.44 |
| SG32 HEADNECK | 1.08 |
| SIHA CERVIX | 0.974 |
| SJSA1 BONE | 1.01 |
| SNU475 LIVER | 0.893 |
| SUM44 BREAST | 1.04 |
| SUM159 BREAST | 1.29 |
| U2OS BONE | 1.15 |
| VCAP PROSTATE | 0.687 |
| VP229 BREAST | 1.56 |
| YAMATO SYNOVIAL | 1.69 |
| ZR751 BREAST | 1.6 |

Compound: CC(=O)c1c(C)c2cnc(Nc3ccc(N4CCNCC4)cn3)nc2n(C2CCCC2)c1=O
Assay: as above
Details: exposure time: 5 days; dose range 0.5-1000 nM
Summary of the method: as §1

| Test System | area under dose-response curve |
| --- | --- |
| 143B BONE | 3.53 |
| CADOES1 SOFT TISSUE | 2.79 |
| CHLA90 AUTONOMIC GANGLIA | 3.14 |
| CME SYNOVIAL | 4.13 |
| HCC202 BREAST | 3.11 |
| HMLE3 BREAST | 3.23 |
| HT1080 SOFT TISSUE | 3.28 |
| LM7 BONE | 3.43 |
| MDAMB157 BREAST | 3.21 |
| MG63 BONE | 3.25 |
| NOS1 BONE | 3.53 |
| SG27 HEADNECK | 3.52 |
| SG28 HEADNECK | 3.43 |
| SG31 HEADNECK | 3.36 |
| SJSA1 BONE | 3.43 |
| SNU475 LIVER | 3.4 |
| SUM44 BREAST | 3.41 |
| SUM159 BREAST | 3.03 |
| U2OS BONE | 3.41 |
| YAMATO SYNOVIAL | 3.92 |
| ZR751 BREAST | 3.47 |

Compound: T1, CAMPTOTHECIN
Assay: as above
Details: exposure time: 5 days; dose range 0.5-1000 nM
Summary of the method: as §1

| Test System | area under dose-response curve |
| --- | --- |
| ASKA SYNOVIAL | 0.904 |
| BT20 BREAST | 0.907 |
| BT549 BREAST | 0.714 |
| CADOES1 SOFT TISSUE | 0.642 |
| CCK81 LARGE INTESTINE | 1.63 |
| CHLA90 AUTONOMIC GANGLIA | 1.21 |
| CME SYNOVIAL | 0.288 |
| HCC78 LUNG | 0.338 |
| HMLE3 BREAST | 0.888 |
| HMT3552 BREAST | 1.48 |
| HT1080 SOFT TISSUE | 1.51 |
| LM7 BONE | 0.895 |
| MDAMB157 BREAST | 1.4 |
| MFM223 BREAST | 1.92 |
| MG63 BONE | 0.972 |
| NOS1 BONE | 1.96 |
| RDES SOFT TISSUE | 0.518 |
| SCC47 HEADNECK | 2.11 |
| SG27 HEADNECK | 2.66 |
| SG31 HEADNECK | 1.58 |
| SG32 HEADNECK | 0.888 |
| SIHA CERVIX | 1.73 |
| SJSA1 BONE | 3.83 |
| SNU475 LIVER | 1.18 |
| SUM44 BREAST | 2.82 |
| SUM159 BREAST | 1.29 |

— the supplement of paper PMC6045584
